These results are taken from patent US9498548B2, “Method of using oxidative reductive potential water solution in dental applications” (priority 2005, dated 2016).

Where two headings read alike, the source gives them in different places.

The test system of data set [1] is murine polychromatic erythrocytes. The conditions noted are these: for PCE/NCE ratio: bone marrow, cyclophosphamide 8 mg/mL, 12.5 ml/kg i.p. day 2. The method, then: The mammalian in vivo micronucleus test is used for the identification of substances which cause damage to chromosomes or the mitotic apparatus of murine polychromatic erythrocytes. This damage results in the formation of “micronuclei,” intracellular structures containing lagging chromosome fragments or isolated whole chromosomes. […] The positive control mice received a single intraperitoneal injection of cyclophosphamide (8 mg/mL, 12.5 ml/kg) on day 2. All mice were observed immediately after injection for any adverse reactions. […] On day 3, all mice were weighed and terminated.
The femurs were excised from the terminated mice, the bone marrow was extracted, and duplicate smear preparations were performed for each mouse. The bone marrow slides for each animal were read at 40× magnification. The ratio of polychromatic erythrocytes (PCE) to normochromatic erythrocytes (NCE), an index of bone marrow toxicity, was determined for each mouse by counting a total of at least 200 erythrocytes. Then a minimum of 2000 scoreable PCE per mouse were evaluated for the incidence of micronucleated polychromatic erythrocytes. Statistical analysis of the data were done using the Mann and Whitney test (at 5% risk threshold) from a statistical software package (Statview 5.0, SAS Institute Inc., USA).

Data set [2] in a line: Root canal treatment study (irrigation and oral rinses). In kind it is in vivo, patients. To be noted: ORP water solution 109 pts; 2.5% SH 129 pts. From the text:
Acute root canal was defined as an X-ray image showing a periapical lesion in addition to negative vitality and positive percussion clinical tests. Retrospective analysis of paired-cases presenting similar root canal infections between 2002 and 2003 at the same Institution was undertaken for the control group (the “SH” group) (see FIGS. 7A-B).
During the process the ducts were isolated to avoid contamination. The cavity was opened and the root drilled. ORP water solution flush started with the drilling process instead of using water or saline solution. Instrumentation was conducted according to the crown down technique using rotatory NiTi instruments. Instrumentation was done according to the extension of the duct as measured by the X ray. Duct irrigation was conducted with the ORP water solution after using each instrument. […] The duct was dried out with dental paper and occlusion done by lateral condensation with calcium hydroxide and epoxy resin. […] After 30 days, oral rinse once daily indefinitely was recommended.
A standard art-known treatment procedure with sodium hypochlorite (SH) was conducted for root canal treatment in control patients. Particular care was paid to avoid infiltration of the solution to the periapical region during the manipulation. All patients in the control group received ampicilin (500 mg tid) or cephalexin (500 mg bid) for 7 days as well as anti-inflammatory drugs (naproxen 500 mg bid) as necessary.
The demographic characteristics were similar for both groups (FIGS. 7 A & B).

For data set [3], the system named is human diploid fibroblasts (HDFs). In words: Cell viability, apoptosis and necrosis by flow cytometry. The conditions noted are these: 880 mM. It is filed as cell-based. Here is the method:
HP is known to be toxic to eukaryotic cells, increasing apoptosis and necrosis and reducing cellular viability. […] HDF cultures were obtained from three different foreskins, which were pooled and cryopreserved together for the purpose of this study. Only diploid cells were used for all experiments. […] Simultaneous analyses of these parameters were performed in the same cell populations by flow cytometry using: […] FIG. 4B) Annexin V-FITC and FIG. 4C) Propidium iodide. FIGS. 8A-8C disclose percentage values expressed as mean±SD (n=3).
A general note: A flow cytometer gives signals particle by particle.

In the next data set the test system is HDFs. The conditions noted are these: human, 1 month, 5 µM.

Regarding `O=P1(N(CCCl)CCCl)NCCCO1` (stereo not drawn) [cyclophosphamide], the PCE/NCE ratio in data set [1] (females) stood at 0.73; in data set [1] (males), 0.77. Further, the “number of polychromatic erythrocytes bearing micronuclei” value in data set [1] (males, minimum of 2000 PCE per mouse evaluated) is 11.0.

Turning to `[Na+].[O-]Cl` [2.5% SH, sodium hypochlorite], in data set [2], the dental losses result is “Dental losses only occurred in the SH control group”, the “patients with an acute local reaction after root canal treatment” value is listed as 16 patients and the “total number of affected teeth” value stood at 23.

As for `OO` [HP, hydrogen peroxide], the Cell viability in data set [3] (5 min) is 55%; in data set [3] (30 min), 5%. Besides, the “cells with increased SA-β-Gal expression” value in the data set on HDFs is 86%.
